{"source": "ChEMBL document CHEMBL1156098", "about": "“Antitumor agents 269. Non-aromatic ring-A neotanshinlactone analog, TNO, as a new class of potent antitumor agents” (2009)", "assay_type_in_all_cases": "functional", "key": {"SK-BR-3": {"test_system": "SK-BR-3", "test": "Cytotoxicity against human SK-BR-3 cells after 3 days by SRB assay", "settings": "SK-BR-3, 72 h, read-out: ED50 (the source's name)"}, "ZR-75-1": {"test_system": "ZR-75-1", "test": "Cytotoxicity against human ZR-75-1 cells after 3 days by SRB assay", "settings": "ZR-75-1, 72 h, read-out: ED50 (the source's name)"}, "MDA-MB-231": {"test_system": "MDA-MB-231", "test": "Cytotoxicity against human MDA-MB-231 cells after 3 days by SRB assay", "settings": "MDA-MB-231, 72 h, read-out: ED50 (the source's name)"}, "A549": {"test_system": "A549", "test": "Cytotoxicity against human A549 cells after 3 days by SRB assay", "settings": "A549, 72 h, read-out: ED50 (the source's name)"}, "DU-145": {"test_system": "DU-145", "test": "Cytotoxicity against human DU145 cells after 3 days by SRB assay", "settings": "DU-145, 72 h, read-out: ED50 (the source's name)"}, "KB": {"test_system": "KB", "test": "Cytotoxicity against human KB cells after 3 days by SRB assay", "settings": "72 h, read-out: ED50 (the source's name)"}, "[1]": {"test": "Cytotoxicity against human KBVIN cells after 3 days by SRB assay", "settings": "72 h, read-out: ED50 (the source's name)"}}, "note": "pEC50: −log10 of the molar value."}
{"compound": "COc1c(-c2occ(C)c2C(=O)O)ccc2c1CCCC2(C)C", "values": [{"measurement": "pEC50", "setting": "SK-BR-3", "result": 4.59}, {"measurement": "pEC50", "setting": "ZR-75-1", "result": 4.38}, {"measurement": "pEC50", "setting": "MDA-MB-231", "result": "< 4.21"}, {"measurement": "pEC50", "setting": "A549", "result": 4.27}, {"measurement": "pEC50", "setting": "DU-145", "result": 4.47}, {"measurement": "pEC50", "setting": "KB", "result": 4.36}, {"measurement": "pEC50", "setting": "[1]", "result": 4.32}]}
{"compound": "Cc1coc(-c2ccc3c(c2O)CCC3)c1C(=O)O", "values": [{"measurement": "pEC50", "setting": "SK-BR-3", "result": 4.52}, {"measurement": "pEC50", "setting": "ZR-75-1", "result": 4.52}, {"measurement": "pEC50", "setting": "MDA-MB-231", "result": 4.35}, {"measurement": "pEC50", "setting": "A549", "result": 4.38}, {"measurement": "pEC50", "setting": "DU-145", "result": 4.42}, {"measurement": "pEC50", "setting": "KB", "result": 4.50}, {"measurement": "pEC50", "setting": "[1]", "result": 4.52}]}
{"compound": "CCOCc1c(C)coc1-c1ccc2c(c1OC)CCCC2(C)C", "values": [{"measurement": "pEC50", "setting": "SK-BR-3", "result": 4.70}, {"measurement": "pEC50", "setting": "ZR-75-1", "result": 4.70}, {"measurement": "pEC50", "setting": "MDA-MB-231", "result": 4.37}, {"measurement": "pEC50", "setting": "A549", "result": 4.64}, {"measurement": "pEC50", "setting": "DU-145", "result": 4.75}, {"measurement": "pEC50", "setting": "KB", "result": 4.67}, {"measurement": "pEC50", "setting": "[1]", "result": 4.78}]}
{"compound": "CCOc1c(-c2occ(C)c2CO)ccc2c1CCCC2(C)C", "values": [{"measurement": "pEC50", "setting": "SK-BR-3", "result": 5.00}, {"measurement": "pEC50", "setting": "ZR-75-1", "result": 4.84}, {"measurement": "pEC50", "setting": "MDA-MB-231", "result": 4.40}, {"measurement": "pEC50", "setting": "A549", "result": 4.64}, {"measurement": "pEC50", "setting": "DU-145", "result": 4.76}, {"measurement": "pEC50", "setting": "KB", "result": 4.77}, {"measurement": "pEC50", "setting": "[1]", "result": 4.82}]}
{"compound": "Cc1coc2c1c(=O)oc1c3c(ccc12)CCC3", "values": [{"measurement": "pEC50", "setting": "SK-BR-3", "result": "< 4.22"}, {"measurement": "pEC50", "setting": "ZR-75-1", "result": "< 4.43"}, {"measurement": "pEC50", "setting": "MDA-MB-231", "result": "< 4.43"}, {"measurement": "pEC50", "setting": "A549", "result": "< 4.43"}, {"measurement": "pEC50", "setting": "DU-145", "result": "< 4.43"}, {"measurement": "pEC50", "setting": "KB", "result": "< 4.43"}, {"measurement": "pEC50", "setting": "[1]", "result": "< 4.43"}]}
{"compound": "Cc1coc(-c2ccc3c(c2O)CCCC3)c1C(=O)O", "values": [{"measurement": "pEC50", "setting": "SK-BR-3", "result": 4.49}, {"measurement": "pEC50", "setting": "ZR-75-1", "result": 4.66}, {"measurement": "pEC50", "setting": "MDA-MB-231", "result": 4.13}, {"measurement": "pEC50", "setting": "A549", "result": 4.24}, {"measurement": "pEC50", "setting": "DU-145", "result": 4.39}, {"measurement": "pEC50", "setting": "KB", "result": 4.30}, {"measurement": "pEC50", "setting": "[1]", "result": 4.53}]}
{"compound": "Cc1coc2c1c(=O)oc1c3c(ccc12)CCCC3", "values": [{"measurement": "pEC50", "setting": "SK-BR-3", "result": 5.29}, {"measurement": "pEC50", "setting": "ZR-75-1", "result": 5.08}, {"measurement": "pEC50", "setting": "MDA-MB-231", "result": 4.41}, {"measurement": "pEC50", "setting": "A549", "result": 4.99}, {"measurement": "pEC50", "setting": "DU-145", "result": 4.49}, {"measurement": "pEC50", "setting": "KB", "result": 4.50}, {"measurement": "pEC50", "setting": "[1]", "result": 4.99}]}
{"compound": "Cc1cccc2c1ccc1c3occ(C)c3c(=O)oc21", "values": [{"measurement": "pEC50", "setting": "SK-BR-3", "result": 6.10}, {"measurement": "pEC50", "setting": "ZR-75-1", "result": 5.96}, {"measurement": "pEC50", "setting": "MDA-MB-231", "result": 4.42}, {"measurement": "pEC50", "setting": "A549", "result": 4.27}, {"measurement": "pEC50", "setting": "DU-145", "result": 4.23}, {"measurement": "pEC50", "setting": "KB", "result": "< 4.43"}, {"measurement": "pEC50", "setting": "[1]", "result": "< 4.43"}]}
{"compound": "Cc1coc(-c2ccc3c(c2O)CCCC3(C)C)c1C(=O)O", "values": [{"measurement": "pEC50", "setting": "SK-BR-3", "result": 6.15}, {"measurement": "pEC50", "setting": "ZR-75-1", "result": 5.77}, {"measurement": "pEC50", "setting": "MDA-MB-231", "result": 4.61}, {"measurement": "pEC50", "setting": "A549", "result": 5.48}, {"measurement": "pEC50", "setting": "DU-145", "result": 5.52}, {"measurement": "pEC50", "setting": "KB", "result": 5.33}, {"measurement": "pEC50", "setting": "[1]", "result": 5.33}]}
{"compound": "Cc1coc(-c2ccc3c(c2O)CCCC3(C)C)c1CO", "values": [{"measurement": "pEC50", "setting": "SK-BR-3", "result": 4.67}, {"measurement": "pEC50", "setting": "ZR-75-1", "result": 4.59}, {"measurement": "pEC50", "setting": "MDA-MB-231", "result": 4.40}, {"measurement": "pEC50", "setting": "A549", "result": 4.61}, {"measurement": "pEC50", "setting": "DU-145", "result": 4.64}, {"measurement": "pEC50", "setting": "KB", "result": 4.66}, {"measurement": "pEC50", "setting": "[1]", "result": 4.70}]}
{"compound": "COc1c(-c2occ(C)c2COC(C)=O)ccc2c1CCCC2(C)C", "values": [{"measurement": "pEC50", "setting": "SK-BR-3", "result": 4.85}, {"measurement": "pEC50", "setting": "ZR-75-1", "result": 4.81}, {"measurement": "pEC50", "setting": "MDA-MB-231", "result": 4.25}, {"measurement": "pEC50", "setting": "A549", "result": 4.54}, {"measurement": "pEC50", "setting": "DU-145", "result": 4.78}, {"measurement": "pEC50", "setting": "KB", "result": 4.60}, {"measurement": "pEC50", "setting": "[1]", "result": 4.60}]}
{"compound": "COCc1c(C)coc1-c1ccc2c(c1OC)CCCC2(C)C", "values": [{"measurement": "pEC50", "setting": "SK-BR-3", "result": 4.73}, {"measurement": "pEC50", "setting": "ZR-75-1", "result": 4.84}, {"measurement": "pEC50", "setting": "MDA-MB-231", "result": 4.32}, {"measurement": "pEC50", "setting": "A549", "result": 4.71}, {"measurement": "pEC50", "setting": "DU-145", "result": 4.76}, {"measurement": "pEC50", "setting": "KB", "result": 4.94}, {"measurement": "pEC50", "setting": "[1]", "result": 4.70}]}
{"compound": "COC(=O)c1c(C)coc1-c1ccc2c(c1OC)CCCC2(C)C", "values": [{"measurement": "pEC50", "setting": "SK-BR-3", "result": 4.57}, {"measurement": "pEC50", "setting": "ZR-75-1", "result": 4.46}, {"measurement": "pEC50", "setting": "MDA-MB-231", "result": 4.21}, {"measurement": "pEC50", "setting": "A549", "result": 4.21}, {"measurement": "pEC50", "setting": "DU-145", "result": 4.47}, {"measurement": "pEC50", "setting": "KB", "result": 4.27}, {"measurement": "pEC50", "setting": "[1]", "result": 4.28}]}
{"compound": "COc1c(-c2occ(C)c2CO)ccc2c1CCCC2(C)C", "values": [{"measurement": "pEC50", "setting": "SK-BR-3", "result": 4.63}, {"measurement": "pEC50", "setting": "ZR-75-1", "result": 4.82}, {"measurement": "pEC50", "setting": "MDA-MB-231", "result": 4.55}, {"measurement": "pEC50", "setting": "A549", "result": 4.63}, {"measurement": "pEC50", "setting": "DU-145", "result": 4.66}, {"measurement": "pEC50", "setting": "KB", "result": 4.60}, {"measurement": "pEC50", "setting": "[1]", "result": 4.66}]}
{"compound": "Cc1coc2c1c(=O)oc1c3c(ccc12)C(C)(C)CCC3", "values": [{"measurement": "pEC50", "setting": "SK-BR-3", "result": 4.45}, {"measurement": "pEC50", "setting": "ZR-75-1", "result": 4.49}, {"measurement": "pEC50", "setting": "MDA-MB-231", "result": "< 4.43"}, {"measurement": "pEC50", "setting": "A549", "result": 4.55}, {"measurement": "pEC50", "setting": "DU-145", "result": 4.50}, {"measurement": "pEC50", "setting": "KB", "result": 4.52}, {"measurement": "pEC50", "setting": "[1]", "result": 4.46}]}
{"compound": "CCc1cccc2c(O)c(-c3occ(C)c3C(=O)O)ccc12", "values": [{"measurement": "pEC50", "setting": "SK-BR-3", "result": 5.47}, {"measurement": "pEC50", "setting": "ZR-75-1", "result": 6.00}, {"measurement": "pEC50", "setting": "MDA-MB-231", "result": "< 4.43"}, {"measurement": "pEC50", "setting": "A549", "result": 4.45}, {"measurement": "pEC50", "setting": "DU-145", "result": 4.53}, {"measurement": "pEC50", "setting": "KB", "result": 4.51}, {"measurement": "pEC50", "setting": "[1]", "result": 4.63}]}
